Among the test systems are ACHN renal; COLO 205 colon; EKVX NSCLC; K-562 leukemia; KM12 colon; MCF7 breast; MDA-MB-435; NCI-H226 lung; NCI-H522 lung; OVCAR-3 ovarian; OVCAR-4 ovarian; SF-539 CNS; SNB-19 CNS; T-47D breast; UO-31 renal.
What all share (experiment): NCI-60 cell line screen, 48 h

Molecules are shown by their SMILES.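 A five-concentration, 48-hour dose response in 96-well plates underlies each endpoint, interpolated linearly between surrounding concentrations. GI50 = concentration required for 50% inhibition of growth. The concentration for full growth arrest is given as TGI.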 A value given as a limit tells only on which side of the number the result lay.

`c1cc2nnc1SCCSCCCSCCS2`: the TGI with ACHN renal, with COLO 205 colon, in the assay with EKVX NSCLC, with K-562 leukemia, in the assay with KM12 colon and in the assay on MCF7 breast was more than 100 µM throughout. In addition, the TGI in the assay with MDA-MB-435 is more than 100 µM; in the assay on NCI-H226 lung, more than 100 µM; in the assay on NCI-H522 lung it was more than 100 µM; in the assay on OVCAR-3 ovarian, more than 100 µM; in the assay on OVCAR-4 ovarian, more than 100 µM; with SF-539 CNS, 58.2 µM. Also, the TGI with SNB-19 CNS, in the assay with T-47D breast and in the assay on UO-31 renal was more than 100 µM each time.

Regarding `COc1ccc(/C=C2/C(=O)N(/C=C3\C(=O)Oc4ccccc4C3=O)C(=NC(C)=O)N2C)cc1OC`, the TGI in the assay on ACHN renal, in the assay with COLO 205 colon, in the assay with EKVX NSCLC, in the assay on K-562 leukemia, in the assay with KM12 colon and in the assay on MCF7 breast was more than 100 µM each time. For the same molecule, the TGI was more than 100 µM with MDA-MB-435; more than 100 µM in the assay with NCI-H226 lung; more than 100 µM in the assay with NCI-H522 lung; more than 41.7 µM with OVCAR-3 ovarian; more than 100 µM with OVCAR-4 ovarian; more than 100 µM with SF-539 CNS. The TGI in the assay with SNB-19 CNS, with T-47D breast and in the assay on UO-31 renal was more than 100 µM throughout. The GI50 with SNB-19 CNS and with UO-31 renal was more than 100 µM in each case.

Consider `CCOC(=O)n1ccc2c(C(=O)OC)c(C(=O)OC)cc(/C(=C/C(=O)OC)C(=O)OC)c21`, for which the TGI in the assay on ACHN renal, in the assay with COLO 205 colon, in the assay on EKVX NSCLC, in the assay with K-562 leukemia, in the assay on KM12 colon and in the assay on MCF7 breast was more than 100 µM in each case. Moreover, the TGI in the assay with MDA-MB-435, in the assay with NCI-H226 lung, in the assay on NCI-H522 lung, in the assay with OVCAR-3 ovarian, with OVCAR-4 ovarian and in the assay on SF-539 CNS was more than 100 µM each time. The TGI in the assay on SNB-19 CNS, with T-47D breast and in the assay with UO-31 renal was more than 100 µM in each case.

As to `O=C(O)c1ccc(C2=Nc3cccc4cccc(c34)N2)cc1`, the TGI with ACHN renal, in the assay on COLO 205 colon, in the assay with EKVX NSCLC, in the assay on K-562 leukemia, with KM12 colon and with MCF7 breast was more than 100 µM throughout. Also, the TGI in the assay on MDA-MB-435, with NCI-H226 lung, in the assay on NCI-H522 lung, with OVCAR-3 ovarian, in the assay with OVCAR-4 ovarian and with SF-539 CNS was more than 100 µM throughout. In addition, the TGI in the assay on SNB-19 CNS, in the assay with T-47D breast and in the assay on UO-31 renal was more than 100 µM throughout.

As for `CCOC(=O)/C=C(/C(=O)OCC)n1cc(C)c(=O)[nH]c1=O`, the TGI is 7.51 µM in the assay on ACHN renal; 4.07 µM with COLO 205 colon; 15.6 µM with EKVX NSCLC; 4.73 µM in the assay on K-562 leukemia; 29 µM with KM12 colon; 12.7 µM in the assay with MCF7 breast. The TGI in the assay on MDA-MB-435 was 10.2 µM; with NCI-H226 lung, 10.7 µM; in the assay on NCI-H522 lung, 2.14 µM; in the assay with OVCAR-3 ovarian, 6.71 µM; in the assay on OVCAR-4 ovarian, more than 32.2 µM; in the assay with SF-539 CNS, 27.3 µM. In addition, the TGI with SNB-19 CNS was determined as 32.2 µM; in the assay with T-47D breast, 17.5 µM; with UO-31 renal, 23.5 µM.

With `CS(=O)(=O)Nc1ccc(NCc2cnc3ccc4[nH]cccc4c23)cc1`, the TGI was more than 100 µM with ACHN renal; 36.2 µM in the assay with COLO 205 colon; more than 100 µM in the assay on EKVX NSCLC; 53.7 µM in the assay with K-562 leukemia; 36.7 µM with KM12 colon; 94.9 µM in the assay on MCF7 breast. Moreover, the TGI in the assay on MDA-MB-435 was 32.5 µM; in the assay with NCI-H226 lung it was more than 100 µM; in the assay on NCI-H522 lung it was 42.3 µM; in the assay with OVCAR-3 ovarian it was 92.9 µM; in the assay with OVCAR-4 ovarian it was 78.4 µM; with SF-539 CNS it was 68.3 µM. Besides, the TGI with SNB-19 CNS was more than 100 µM; in the assay with T-47D breast, 66.6 µM; in the assay on UO-31 renal, 78.2 µM.

For `N#CC(C#N)[C@@H]1CCC=C(Sc2ccccc2)[C@H]1Sc1ccccc1`, the TGI with ACHN renal is 6.07 µM; in the assay on COLO 205 colon, 4.86 µM; in the assay on EKVX NSCLC it was 15.4 µM; in the assay with K-562 leukemia, more than 100 µM; in the assay with KM12 colon it was 12.2 µM; in the assay on MCF7 breast, 14.1 µM. Besides, the TGI in the assay with MDA-MB-435 worked out at 4.53 µM; in the assay with NCI-H226 lung it was 4.01 µM; in the assay with NCI-H522 lung, 6.01 µM; with OVCAR-3 ovarian, 12.8 µM; with OVCAR-4 ovarian, 17.2 µM; with SF-539 CNS it was 4.6 µM. The TGI turned out to be 29 µM with SNB-19 CNS, 7.71 µM with T-47D breast and 17.6 µM with UO-31 renal.

On to `COc1ccc(N2C(=O)C3c4[nH]c5ccc(OC)cc5c4C4CCC(c5ccccc5)CC4C3C2=O)cc1` (configuration not stated), for which the TGI with ACHN renal is 34 µM; in the assay with COLO 205 colon it was more than 86.1 µM; with EKVX NSCLC it was 52 µM; in the assay with K-562 leukemia, more than 43.9 µM; with KM12 colon, more than 56.3 µM; in the assay with MCF7 breast, more than 85.4 µM. The TGI was 68.4 µM in the assay on MDA-MB-435; more than 100 µM in the assay with NCI-H226 lung; 27.4 µM in the assay with NCI-H522 lung; 37 µM in the assay with OVCAR-3 ovarian; 19.3 µM in the assay on OVCAR-4 ovarian; 13.9 µM with SF-539 CNS. Also, the TGI is 28.8 µM with SNB-19 CNS, 86.3 µM with T-47D breast and more than 70.6 µM with UO-31 renal.

Take `Oc1c(O)c(Cc2ccccc2)c(Cc2ccccc2)c(Cc2ccccc2)c1Cc1ccccc1`: the TGI in the assay on ACHN renal, in the assay with COLO 205 colon, in the assay with EKVX NSCLC, in the assay with K-562 leukemia, in the assay on KM12 colon and in the assay with MCF7 breast was more than 10 µM each time. In addition, the TGI with MDA-MB-435, in the assay with NCI-H226 lung, with NCI-H522 lung, in the assay with OVCAR-3 ovarian, with OVCAR-4 ovarian and in the assay with SF-539 CNS was more than 10 µM throughout. Also, the TGI with SNB-19 CNS, with T-47D breast and with UO-31 renal was more than 10 µM each time.

On to `CCOC(=O)/C=C/C1=C(Br)[C@@]2(C)CC[C@@H]3c4ccc(O)cc4CC[C@H]3[C@@H]2C1`, for which the TGI in the assay with ACHN renal is 29.1 µM; in the assay with COLO 205 colon it was 32.2 µM; with EKVX NSCLC, 30.7 µM; in the assay on K-562 leukemia, 24.9 µM; with KM12 colon, 29.7 µM; in the assay on MCF7 breast it was 26.7 µM. The TGI in the assay on MDA-MB-435 amounted to 28.8 µM; in the assay on NCI-H226 lung it was 30.2 µM; in the assay on NCI-H522 lung, 14.2 µM; with OVCAR-3 ovarian it was 20.5 µM; in the assay with OVCAR-4 ovarian, 27.7 µM; in the assay with SF-539 CNS, 30.7 µM. In addition, the TGI with SNB-19 CNS was found to be 30.2 µM; in the assay with T-47D breast, 16.5 µM; with UO-31 renal, 30.4 µM.

Consider `O=C1NC(=O)C23C(=O)NC(=O)C12C1C=CC3CC1` (configuration not stated), for which the TGI with ACHN renal, with COLO 205 colon, in the assay with EKVX NSCLC, in the assay with K-562 leukemia, in the assay with KM12 colon and in the assay on MCF7 breast was more than 10 µM throughout. Moreover, the TGI in the assay on MDA-MB-435, with NCI-H226 lung, in the assay with NCI-H522 lung, with OVCAR-3 ovarian, in the assay with OVCAR-4 ovarian and with SF-539 CNS was more than 10 µM in each case. The TGI in the assay with SNB-19 CNS, in the assay with T-47D breast and in the assay on UO-31 renal was more than 10 µM throughout.

Turning to `O=C1C2CCCCC2C(=O)N1n1c(Cc2ccccc2)n[nH]c1=O` (configuration not stated), the TGI in the assay on ACHN renal, in the assay on COLO 205 colon, in the assay with EKVX NSCLC, in the assay with K-562 leukemia, in the assay with KM12 colon and in the assay on MCF7 breast was more than 100 µM throughout. Besides, the TGI in the assay on MDA-MB-435, in the assay with NCI-H226 lung, in the assay on NCI-H522 lung, with OVCAR-3 ovarian, in the assay on OVCAR-4 ovarian and in the assay with SF-539 CNS was more than 100 µM in each case. For the same molecule, the TGI with SNB-19 CNS, with T-47D breast and with UO-31 renal was more than 100 µM each time.

Consider `COC(=O)C(Cc1ccccc1)NP(=O)(O)OCC1OC(n2ccc(N)nc2=O)C(O)C1O` (configuration not stated), for which the TGI with ACHN renal, in the assay with COLO 205 colon, in the assay with EKVX NSCLC, in the assay with K-562 leukemia, in the assay with KM12 colon and in the assay with MCF7 breast was more than 100 µM each time. For the same molecule, the TGI in the assay with MDA-MB-435, with NCI-H226 lung, in the assay on NCI-H522 lung, in the assay with OVCAR-3 ovarian, in the assay on OVCAR-4 ovarian and in the assay on SF-539 CNS was more than 100 µM in each case. Further, the TGI in the assay on SNB-19 CNS, in the assay with T-47D breast and in the assay with UO-31 renal was more than 100 µM throughout.

With `Cc1cc(=O)[nH]c(S(=O)(=O)NC(=O)Nc2cccc(Cl)c2)n1`, the TGI was more than 100 µM in the assay on ACHN renal; more than 100 µM in the assay with COLO 205 colon; more than 100 µM in the assay with EKVX NSCLC; more than 100 µM with K-562 leukemia; 32.3 µM with KM12 colon; more than 100 µM with MCF7 breast. For the same molecule, the TGI is more than 48.3 µM in the assay with MDA-MB-435; more than 100 µM in the assay on NCI-H226 lung; more than 100 µM in the assay with NCI-H522 lung; more than 100 µM in the assay with OVCAR-3 ovarian; more than 41.7 µM with OVCAR-4 ovarian; more than 100 µM in the assay on SF-539 CNS. Also, the TGI with SNB-19 CNS is more than 100 µM; with T-47D breast, more than 100 µM; in the assay with UO-31 renal, 13.9 µM.

(Values after PubChem BioAssay (NCI).)
